Reference: patent US20250186379A1, “METHODS AND AGENTS FOR DECREASING INSULIN RESISTANCE” (Whitehead Institute for Biomedical Research, priority 2021, published 2025)
Entries after “also recorded” stand apart in the source; their conditions may differ.

Test system: IR condensates
Experiment: Imaging of IR puncta/condensates (immunofluorescence, IR-GFP) in HepG2 cells
Assay type: cell-based, human
Protocol: For insulin sensitivity and resistance experiments in HepG2 cells, cells were washed with EMEM once and cultured in EMEM for two days. […] To wash out insulin, cells were washed in EMEM seven times, which includes three quick washes, three 5 min washes and a long 20 minute-wash in EMEM at 37° C. In order to investigate insulin response, cells were acutely treated for 5 min with insulin diluted in EMEM supplemented with 1.25% fatty acid-free BSA at 37° C. with 5% CO2 in a humidified incubator.
Metformin (SIGMA, D150959-5G) was resuspended in sterile water to a concentration of 1M and diluted to the reported concentrations in the figures in cell media. […]
HepG2 cells, human liver spheroids and human tissue liver sections were fixed in 4% PFA (VWR, BT140770-10X10) in PBS for 10 min at room temperature. Cells were washed in PBS three times for 5 min and then blocked with 4% IgG-free BSA (VWR, 102643-516) for 15-60 min at room temperature. Cells were then incubated with 1:500 primary antibody in 4% IgG-free BSA at 4° C. overnight. The next day, cells were washed three times with PBS and incubated with 1:500 secondary antibodies in 4% IgG-free BSA at room temperature for 1 hr covered in foil. Cells were washed three times with PBS for 5 min. DNA was stained using 1:5000 Hoechst in PBS for 5 min at RT. Cells were washed three times with PBS for 5 min, stored at 4° C. until imaging. For tissue sections, samples were mounted using Vectashield mounting media (Vector Laboratories, Inc, H-1000). LSM880 microscope with Airyscan detector (ZEISS) was used for image acquisition. Images were then processed using Fiji/ImageJ v2.1.0/153c.
Cells expressing endogenous IR tagged with GFP were grown on 35 mm glass bottom dishes (MatTek Corporation, P35G-1.5-20-C). Cells were imaged at 37° C. using the SM880 Microscope with Airyscan detector with 63× objective and Zen Black software (ZEISS) at the W.M. Keck Microscopy Facility, MIT. Images were then processed using Fiji/ImageJ v2.1.0/153c.
To quantify IR fluorescent signal in puncta, Fiji/ImageJ v2.1.0/153c was used. A circle or an oval was drawn around IR puncta using the oval selection tool and the average fluorescence intensity in the circle/oval (=in the puncta) was determined using the measure tool on Fiji. Background was then subtracted as previously described. To quantify IR fluorescent signal at puncta in various cellular compartments, applicant identified the location of the plasma membrane, cytoplasm, nucleus and RNA FISH spots as follows. The plasma membrane location was identified based on IR immunofluorescence signal, IR-GFP fluorescent signal or CK18 immunofluorescence signal or cell edge. The nucleus was determined by the Hoechst stain for immunofluorescence and tc-PALM experiments or by IR-GFP fluorescence when HepG2 cells expressing IR-GFP were imaged. Given the overlap between Hoechst fluorescence and GFP fluorescence, artefactual green fluorescence coming from the Hoechst confounded IR puncta identification in the nucleus. Since the differences in IR puncta intensity and concentration between cytoplasm and nucleus in HepG2 cells was clear, nuclear outline was easily drawn based on IR-GFP fluorescent signal. Cytoplasm was considered the region between the plasma membrane and the nucleus. RNA FISH spots were identified based on RNA FISH probe fluorescence. Within the FISH spot, IR intensity was measured using the measure tool.
To estimate the number of IR puncta at the plasma membrane, cytoplasm, nucleus or in entire cells, IR puncta were initially counted in a cell slice using Fiji. The number obtained from the cell slice was then multiplied based on the estimated size of the plasma membrane, cytoplasm, nucleus or entire cell, which were obtained considering the length and width of the cell under investigation and the estimated height (˜5 um). […]

[1] = insulin sensitive HepG2 cells, acute 3 nM insulin
[2] = insulin resistant HepG2 cells, metformin concentration series (FIG. 5A,B)

In the case of “insulin: insulin (Sigma Aldrich, I9278-5ML) used for acute stimulation and chronic physiological or pathological exposure”, the “incorporation of additional IR into condensates/puncta” value (insulin resistant HepG2 cells, acute insulin (3 nM)) is reported as “did not promote incorporation of additional IR into condensates; also recorded: did not promote incorporation of additional IR into puncta”, the “IR signal intensity in puncta” value [1] is reported as “caused an increase; also recorded: elevated IR-GFP signal in these puncta; also recorded: promotes an increase in IR-GFP signal in IR puncta” and the “number of IR puncta in the cytoplasm and nucleus” value [1] is reported as “caused an increase; also recorded: increased numbers of cytoplasmic and nuclear puncta; also recorded: an increase in the number of IR puncta in the nucleus and cytoplasm”. The “IR-incorporation into condensates over a range of insulin concentrations” value (insulin-sensitive cells, 0, 0.1, 1, 10, 100 nM insulin 5 min (FIGS. 17G-17H)) was “non-linear transition”.
For TNFα, the “insulin-stimulated IR incorporation into puncta” value (HepG2 cells, 2 days pathological TNFα or high nutrients, 3 nM insulin 5 min (FIG. 27)) was “caused a decrease in insulin-stimulated IR incorporation into puncta”.
With `CN(C)C(=N)N=C(N)N` [metformin, reference compound] the IR condensate rescue (insulin resistant HepG2 cells, 12.5 uM metformin) was “significant; also recorded: evident”, the “intensity of IR signal in condensates” value [2] was “dose-dependent increase” and the “number of IR containing condensates” value [2] was “dose-dependent increase”. For the same molecule, the “effect on IR condensates” value (insulin sensitive HepG2 cells, 50 nM metformin as printed (FIG. 13A)) was “little or no effect on IR condensates”, the “IR signal in puncta” value (insulin-resistant IR-GFP HepG2 cells, 12.5 μM metformin, 3 nM insulin 5 min (FIGS. 16D-16E, 30A)) was “partially restored IR signal in these puncta” and the “effect on IR puncta / IR condensates” value (insulin-sensitive HepG2 IR-GFP cells with or without metformin (50 μM in FIG. 30B), 3 nM insulin 5 min) was “little or no effect on IR puncta; also recorded: does not affect IR condensates in insulin sensitive cells”.
